Reference: ChEMBL document CHEMBL5143623, “Discovery of novel spiro compound as RAF kinase inhibitor with in vitro potency against KRAS mutant cancer” (Bioorg Med Chem Lett, 2022)
Activity calls are given as the source filed them. No cut-off for these calls is given here.

Tests used:
NCI-H358 [1] = assay: Growth inhibition of human H358 cells expressing KRAS […] mutant measured after 3 days by Cell-titer Glo assay; type: functional; conditions: NCI-H358, 72 h, time 3 day
NCI-H358 [2] = assay: Effect on Erk signalling pathway in human H358 cells assessed as increase in Erk phosphorylation by HTRF assay; type: functional, cell-based
[3] = target: RAF proto-oncogene serine/threonine-protein kinase (Homo sapiens, UniProt P04049); assay: Inhibition of human recombinant cRAF measured after 1 hr by TR-FRET assay
RAF proto-oncogene serine/threonine-protein kinase, sequence (P04049 whole entry): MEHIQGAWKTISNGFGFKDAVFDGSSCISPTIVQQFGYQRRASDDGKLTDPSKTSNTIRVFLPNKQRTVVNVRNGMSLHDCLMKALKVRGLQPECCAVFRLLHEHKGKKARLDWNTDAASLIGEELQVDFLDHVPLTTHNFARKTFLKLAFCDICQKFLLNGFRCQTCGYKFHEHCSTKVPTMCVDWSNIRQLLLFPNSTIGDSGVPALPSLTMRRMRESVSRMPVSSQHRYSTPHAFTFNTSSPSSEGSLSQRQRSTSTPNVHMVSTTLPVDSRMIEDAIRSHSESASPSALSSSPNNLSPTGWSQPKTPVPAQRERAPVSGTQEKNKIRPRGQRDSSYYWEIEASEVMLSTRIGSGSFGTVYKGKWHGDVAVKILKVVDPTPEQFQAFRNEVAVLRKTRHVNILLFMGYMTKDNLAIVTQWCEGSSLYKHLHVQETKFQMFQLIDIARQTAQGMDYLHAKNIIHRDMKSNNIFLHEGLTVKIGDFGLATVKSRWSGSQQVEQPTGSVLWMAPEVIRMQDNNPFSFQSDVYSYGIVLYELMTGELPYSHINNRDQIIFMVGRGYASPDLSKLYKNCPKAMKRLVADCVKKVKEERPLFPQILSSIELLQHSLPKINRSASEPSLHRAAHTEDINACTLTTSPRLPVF

Cc1ccc(NC(=O)c2ccnc(C(F)(F)F)c2)cc1-c1cc(OCCO)nc(N2CCOCC2)c1 [NAPORAFENIB]
GI50 (NCI-H358 [1]): 3 µM | Activity (NCI-H358 [2]): Active

Cc1ccc(NC(=O)c2ccnc(C(F)(F)F)c2)cc1-c1ccc2c(c1)OC1(CCOCC1)CC2N (stereo not given)
IC50 [3]: 21 nM | GI50 (NCI-H358 [1]): 6.6 µM

Cc1ccc(NC(=O)c2ccnc(C(F)(F)F)c2)cc1-c1ccc2c(c1)NC1(CCOCC1)NC2=O
IC50 [3]: 4.8 nM | GI50 (NCI-H358 [1]): 15 µM

Cc1ccc(NC(=O)c2ccnc(C(F)(F)F)c2)cc1-c1cnc2c(c1)OC1(CCOCC1)NC2=O
IC50 [3]: 28 nM | GI50 (NCI-H358 [1]): 8.7 µM

Cc1ccc(NC(=O)c2ccnc(C(F)(F)F)c2)cc1-c1ccc2c(c1)N(O)C1(CCOCC1)NC2=O
IC50 [3]: 55 nM | GI50 (NCI-H358 [1]): 8.9 µM

Cc1ccc(NC(=O)c2ccnc(C(F)(F)F)c2)cc1-c1ccc2c(c1)OC1(CCOCC1)CC2NCCO (stereo not given)
IC50 [3]: 29 nM | GI50 (NCI-H358 [1]): 14 µM

Cc1ccc(NC(=O)c2ccnc(C(F)(F)F)c2)cc1-c1ccc2c(c1)C(=O)CC1(CCOCC1)O2
IC50 [3]: 37 nM | GI50 (NCI-H358 [1]): 9.7 µM

Cc1ccc(NC(=O)c2ccnc(C(F)(F)F)c2)cc1-c1ccc2c(c1)OC1(CCOC1)NC2=O (stereo not given)
IC50 [3]: 4.3 nM | GI50 (NCI-H358 [1]): 8.3 µM

Cc1ccc(NC(=O)c2ccnc(C(F)(F)F)c2)cc1-c1ccc2c(c1)NC1(CCOCC1)NS2(=O)=O
IC50 [3]: 60 nM | GI50 (NCI-H358 [1]): 19 µM

Cc1ccc(NC(=O)c2ccnc(C(F)(F)F)c2)cc1-c1ccc2c(c1)OC1(COC1)NC2=O
IC50 [3]: 62 nM | GI50 (NCI-H358 [1]): 10 µM
